Results from patent US4514330A, “Carbon-7-substituted atinomycin D analogue” (Trustees of Boston University, priority 1983, dated 1985).
In brackets after ≈: the same amount, converted by molar mass. Read-outs that look alike come from different tables or passages of the source.

Assays:
[1] = test system: human lymphoblastic leukemic cells (CCRF-CEM); test: In vitro growth-inhibitory activity against human lymphoblastic leukemic cells (CCRF-CEM) in log phase; assay type: cell-based; details: for IC50: Homo sapiens, final growth medium contained 1% Me2SO, log phase, read-out: ID50 (in vitro growth inhibition, CCRF-CEM)
Procedure: ^b Using human lymohoblastic leukemia cells in logplastic growth.
Compounds were dissolved in Me2 So medium, final growth medium

[2] = In vivo metabolic transformation and urinary excretion; parameters: species or system rat; details: metabolites as conjugates of 4b
Procedure: The therapeutic indexes of both 3b and 4b in qd 1-4 and q4d 1, 5, 9 schedules of treatment are calculated and expressed in Table IV. […] These and other unidentified polar metabolites are excreted at about two to three times the rate of AMD in rat urine. This process of in vivo metabolic transformation and fast excretion appears to play a major role in reducing the in vivo toxicity factor of 3b and 4b.

[3] = test system: P-388 leukemia; test: In vivo antitumor activity against P-388 lymphocytic leukemia in CDF1 mice; details: for % ILS (percent increase in life span) / MST (median survival time) / cure (over 55 day survivors): days 1, 5, 9; for minimal effective dose: Mus musculus, P388, ip, read-out: MED (minimum effective dose, 40% increase in life span over control); for fold increase in survival time over AMD (1b) or 7-hydroxyactinomycin D (2b): optimal nontoxic dose levels
Procedure: Studies on in vivo activity of AMD and AMD analogues were carried out with P-388 lymphocytic leukemia in CDF1 hybrid mice. The drugs were administered either daily for 4 successive days (qd 1-4) or on days 1, 5 and 9 (q4d 1, 5, 9) beginning 1 day after tumor implantation.
^a Male CDF1 (18-23 g) mice were inoculated intraperitoneally
(ip) with 10^6 P388 cells on day 0. Drugs were administered, also ip,
in 10% dimethyl sulfoxidesaline on days 1, 5 and 9. Test solutions were
kept at 0-4° C., protected from light, and the stability and
homogeneity were checked periodically by TLC and HPLC.
^b MST = median survival time.
^c % ILS = percent increase in life span.
^d Over 55 day survivors. Average of three experiments. The
^a Drugs administed ip once daily either for 4 successive days (qd
1-4) or on days 1, 5 and 9 (q4d 1, 5 9), starting 1 day after tumor
^b MED (minimum effective dose) is the dose (milligrams/kilogram)
providing an increase in life span of 40% over control in P388

[4] = test system: calf thymus DNA; test: DNA binding by visible absorption and CD spectra of DNA (P)-drug complex; details: mole ratio DNA (P)/analogue = 10:1; 3b, 4b and 5b compared; 1.0×10^-5 M, pH 7
Description: In FIG. 1, absorption (top) and circular dichroism (bottom) spectra in 0.01 M phosphate buffer (pH7) containing EDTA (10^-5 M) and Me2 SO (5%): 3b (...), 4b (---), 5b (--). Concentration of drug in each case was 1.0×10^-5 M. In this respect, they are almost indistinguishable from the known analogue 7-methoxyactinomycin D (5b), whose structure and physical properties we have previously reported. The absorption spectra of all these analogues in aqueous buffer are also almost superimposable. […] The absorption spectrum of the analogues above 240 nm is mainly due to the electronic configuration of the tricyclic chromophore. The CD spectrum in the same wavelength region is an indicator of peptide conformation in actinomycin analogues, because it is the peptide lactone ring that confers optical activity on the nearly planar chromophore. The nature of the CD spectra (3b, 4b and 5b) asserts that in these analogues there is an identical relationship between the chromophores and peptide lactones. This relationship is very important, because during binding to DNA, AMD and some analogues are known to rely on the cooperative role between the chromophore and the peptide lactones for their highly specific DNA-binding property.
Any change in the configurations of the peptide lactones on binding to DNA is generally expressed in the CD spectra of the analogue-DNA complexes. […] The changes in the visible absorption spectra of 3b, 4b and 5b and also their CD spectra observed after adding calf thymus DNA [mole ratio of DNA (P)/analogue=10:1] are identical (FIG. 2). In FIG. 2, the absorption (top) and CD spectra of the DNA (P)-drug complex (ratio 10:1). Concentrations, buffer and line types are as in FIG. 1.

[5] = test system: normal CDF1 male mice; test: Maximum tolerated dose (LD10) in normal, tumor-free CDF1 male mice; assay type: in vivo; details: for MTD (maximum tolerated dose, lethal for 10% of normal mice; = LD10): deaths during 21 days; for MTD dose as multiple of the MTD dose for AMD: q4d 1, 5, 9 schedule; for fold less toxic than AMD: qd 1-4 schedule
Procedure: ^c MTD (maximum tolerated dose) is the lethal dose
(milligrams/kilogram) for 10% normal CDF1 male mice (18-23 g);
were calculated from a plot of log dose vs. percent mortality. Average of
two to three experiments.
Biological Experiments. Determination of LD10 Values. Tumor-free CDF1 male mice weighing 18-23 g were given a broad range of doses of drugs in 10% dimethyl sulfoxide-saline on either days 1, 5 and 9 or on 4 successive days. Drugs were administered intraperitoneally (ip).
The maximum tolerated doses of AMD and analogues that caused deaths in only 10% of the tested animals in 21 days were recorded as MTD. The results are an average of two experiments in each. The MTD values obtained following schedules q4d 1, 5, 9 (three injections) and qd 1-4 (four injections) are recorded in Table IV. These doses are the same as LD10 (lethal dose of 10% of tumor-free animals in 21 days).

[6] = three injections ip, q4d 1, 5, 9

Structure (SMILES) | IC50 [1] | in vivo metabolic transformation [2] | % ILS (percent increase in life span) ([3]; 0.15 mg/kg ip) | MST (median survival time) ([3]; 0.15 mg/kg ip) | cure (over 55 day survivors) ([3]; 0.15 mg/kg ip) | % ILS (percent increase in life span) ([3]; 0.30 mg/kg ip) | MST (median survival time) ([3]; 0.30 mg/kg ip) | cure (over 55 day survivors) ([3]; 0.30 mg/kg ip) | % ILS (percent increase in life span) ([3]; 0.60 mg/kg ip) | MST (median survival time) ([3]; 0.60 mg/kg ip) | cure (over 55 day survivors) ([3]; 0.60 mg/kg ip) | % ILS (percent increase in life span) ([3]; 1.20 mg/kg ip) | MST (median survival time) ([3]; 1.20 mg/kg ip) | cure (over 55 day survivors) ([3]; 1.20 mg/kg ip) | % ILS (percent increase in life span) ([3]; 1.80 mg/kg ip) | MST (median survival time) ([3]; 1.80 mg/kg ip) | cure (over 55 day survivors) ([3]; 1.80 mg/kg ip) | minimal effective dose ([3]; four injections ip, qd 1-4) | minimal effective dose [3, 6] | therapeutic index: MTD/MED ([3]; four injections ip, qd 1-4) | also measured
Cc1c2oc3c(C)c(OCC4CO4)cc(C(=O)N[C@@H]4C(=O)N[C@H](C(C)C)C(=O)N5CCC[C@H]5C(=O)N(C)CC(=O)N(C)[C@@H](C(C)C)C(=O)O[C@@H]4C)c3nc-2c(C(=O)N[C@@H]2C(=O)N[C@H](C(C)C)C(=O)N3CCC[C@H]3C(=O)N(C)CC(=O)N(C)[C@@H](C(C)C)C(=O)O[C@@H]2C)c(N)c1=O (stereo partly drawn) [Compound 3b, 7-(2,3-Epoxypropoxy)actinomycin D] | 0.009 µg/mL (≈ 0.00678 µM) | transformed in vivo to highly polar metabolites | 164% | 29 days | 0/7 | 263% | 40 days | 1/7 | 255% | 41 days | 1/7 | 291% | 43 days | 3/7 | 300% | 44 days | 3/7 | 0.0375 mg/kg | 0.05 mg/kg | 43 | times more cytotoxic than AMD ([1]; vs AMD): about sevenfold; % ILS (percent increase in life span) ([3]; 2.40 mg/kg ip): 136%; MST (median survival time) ([3]; 2.40 mg/kg ip): 26 days; cure (over 55 day survivors) ([3]; 2.40 mg/kg ip): 2/7; breadth of dose-response curve ([3]; ip, q4d 1, 5, 9): very broad; overall activity relative to AMD ([3]; ip, q4d 1, 5, 9): superior to AMD; cure (tumor free), animals out of seven treated ([3]; optimal dose ranges of 1.2 and 1.8 mg/kg, ip, q4d 1, 5, 9): three; fold increase in survival time over AMD (1b) or 7-hydroxyactinomycin D (2b) ([3]; ip, q4d 1, 5, 9): ~2.5 fold; therapeutic index: MTD/MED [3, 6]: 72; long-term survivors ([3]; throughout the dose range, ip, q4d 1, 5, 9): long-term survivors throughout this dose range; changes in visible absorption and CD spectra after adding calf thymus DNA [4]: identical; MTD (maximum tolerated dose, lethal for 10% of normal mice; = LD10) ([5]; four injections ip, qd 1-4): 1.6 milligrams/kilogram; MTD dose as multiple of the MTD dose for AMD [5]: 14 fold; fold less toxic than AMD [5]: 11 fold; MTD (maximum tolerated dose, lethal for 10% of normal mice; = LD10) [5, 6]: 3.6 milligrams/kilogram
Cc1c2oc3c(C)c(OCC(O)CO)cc(C(=O)N[C@@H]4C(=O)N[C@H](C(C)C)C(=O)N5CCC[C@H]5C(=O)N(C)CC(=O)N(C)[C@@H](C(C)C)C(=O)O[C@@H]4C)c3nc-2c(C(=O)N[C@@H]2C(=O)N[C@H](C(C)C)C(=O)N3CCC[C@H]3C(=O)N(C)CC(=O)N(C)[C@@H](C(C)C)C(=O)O[C@@H]2C)c(N)c1=O (stereo partly drawn) [Compound 4b, 7-(2,3-Dihydroxypropoxy) actinomycin D] | 0.085 µg/mL (≈ 0.0632 µM) | transformed in vivo to highly polar metabolites | 45% | 16 days | 0/7 | 82% | 20 days | 2/7 | 136% | 25 days | 1/7 | 191% | 32 days | 0/7 | 36% | 15 days | 0/7 | 0.125 mg/kg | 0.15 mg/kg | 6 | times less cytotoxic than AMD ([1]; vs AMD): about 1.5 times; fold increase in survival time over AMD (1b) or 7-hydroxyactinomycin D (2b) ([3]; ip, q4d 1, 5, 9): ~1.5 fold; therapeutic index: MTD/MED [3, 6]: 12; changes in visible absorption and CD spectra after adding calf thymus DNA [4]: identical; MTD (maximum tolerated dose, lethal for 10% of normal mice; = LD10) ([5]; four injections ip, qd 1-4): 1.4 milligrams/kilogram; MTD dose as multiple of the MTD dose for AMD [5]: 7 fold; fold less toxic than AMD [5]: 9 fold; MTD (maximum tolerated dose, lethal for 10% of normal mice; = LD10) [5, 6]: 1.8 milligrams/kilogram
